One assay concerns the target T1, Renilla luciferase (Renilla reniformis, UniProt P27652).
T1 sequence (P27652 1-311): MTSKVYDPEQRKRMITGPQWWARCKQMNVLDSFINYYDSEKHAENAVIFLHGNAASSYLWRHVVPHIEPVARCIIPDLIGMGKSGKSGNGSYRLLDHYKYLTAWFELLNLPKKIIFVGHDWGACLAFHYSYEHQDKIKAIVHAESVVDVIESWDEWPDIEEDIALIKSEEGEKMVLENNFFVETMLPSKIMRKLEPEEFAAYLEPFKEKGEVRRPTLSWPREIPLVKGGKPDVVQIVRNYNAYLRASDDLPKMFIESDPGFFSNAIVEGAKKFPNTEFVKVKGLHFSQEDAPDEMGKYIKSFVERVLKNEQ
In words: Non-detergent compound screen, Renilla luciferase (Example 6). The class given is biochemical. The conditions noted are these: for remaining activity at 23 µM / remaining activity at 153 µM / remaining activity at 1000 µM / remaining activity at 10 µM / remaining activity at 100 µM: 0.5% Tergitol NP-9, 0.03% BDDABr, read-out: Retained Renilla Luciferase Value (%). The method, then: (§1) Each compound was diluted into 200 mM MOPS pH 6.7, 4 μM MgSO4, 1 mM CDTA, 0.5% Tergitol NP-9, 0.05% Mazu-DF-204, 0.03% BDDABr, 30 mM thiourea, 1 mM bis-(2-mercaptoethylsulfone) (BMS), 4 μM CoA, and 1 μM 5-fluoroluciferin. Just prior to the luciferase reaction, 0.1% Prionex® (Pentapharm) and 2.9 μM coelenterazine-h (Promega) were added to each solution.
(§2) The firefly luciferase and Renilla luciferase enzymes were diluted as described in Examples 3 and 5. The luciferase reactions were initiated by adding 50 μl of the firefly luciferase and Renilla luciferase enzyme solution to 50 μl of reagent solution. The reactions were performed as described above. The retained Renilla and firefly luciferase-mediated luminescence and selectivity values for each inhibitor tested are listed in Table 6.

The target of another assay is firefly luciferase (Photinus pyralis, UniProt P08659). In words: Non-detergent compound screen, firefly luciferase (Example 6). In kind it is biochemical. As to conditions: 0.5% Tergitol NP-9, 0.03% BDDABr, read-out: Retained Firefly Luciferase Value (%); for remaining activity at 23 µM: inhibitor 23 μM; for remaining activity at 153 µM: inhibitor 153 μM; for remaining activity at 1000 µM: inhibitor 1000 μM; for remaining activity at 10 µM: inhibitor 10 μM; for remaining activity at 100 µM: inhibitor 100 μM. As to the method:
as §1, §2

We go through 9 compounds from patent publication US20080248511A1, “METHODS TO QUENCH LIGHT FROM OPTICAL REACTIONS” (priority 2007, published 2008).

Sequence of firefly luciferase (P08659 whole entry): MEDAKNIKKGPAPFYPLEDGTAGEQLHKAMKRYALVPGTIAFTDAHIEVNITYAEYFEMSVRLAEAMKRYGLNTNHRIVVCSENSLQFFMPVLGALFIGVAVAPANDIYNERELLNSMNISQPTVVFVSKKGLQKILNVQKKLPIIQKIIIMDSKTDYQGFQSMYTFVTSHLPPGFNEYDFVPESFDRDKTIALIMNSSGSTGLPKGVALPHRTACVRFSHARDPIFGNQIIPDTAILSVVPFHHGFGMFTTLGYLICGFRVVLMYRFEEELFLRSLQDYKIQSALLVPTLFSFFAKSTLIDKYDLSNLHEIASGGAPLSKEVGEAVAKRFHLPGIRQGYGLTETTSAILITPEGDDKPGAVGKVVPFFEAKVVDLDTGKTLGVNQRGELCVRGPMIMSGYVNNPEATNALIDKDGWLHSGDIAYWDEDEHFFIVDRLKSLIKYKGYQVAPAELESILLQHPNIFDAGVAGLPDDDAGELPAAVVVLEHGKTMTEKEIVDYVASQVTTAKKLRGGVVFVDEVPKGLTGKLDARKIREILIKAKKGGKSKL

Take `COc1ccc(CNC(=O)/C=C/c2ccc3oc(=O)cc(C)c3c2)cc1` [Compound 3057, (E)-N-(4-methoxybenzyl)-3-(4-methyl-2-oxo-2H-chromen-6-yl)acrylamide]: the “inhibitor of Renilla luciferase, grade in words” value (“inhibitor of Renilla luciferase” for short) against Renilla luciferase is “suitable inhibitors of Renilla luciferase”. In addition, at Renilla luciferase (inhibitor 23 μM), the “Selectivity Value” stood at 1 and the remaining activity at 23 µM was 100%. In addition, on Renilla luciferase (inhibitor 153 μM), the “Selectivity Value” is 1.1 and the remaining activity at 153 µM was determined as 93%. Moreover, at Renilla luciferase (inhibitor 1000 μM), the “Selectivity Value” came out at 1.3 and the remaining activity at 1000 µM is 77.5%. For the same compound, at firefly luciferase, the remaining activity at 23 µM was 100%, the remaining activity at 153 µM is 98% and the remaining activity at 1000 µM was 102%.
For the compound `C=C(C(=O)NCc1ccc(OC)cc1)c1ccc2oc(=O)cc(C)c2c1` [Compound 3058, N-(4-methoxybenzyl)-2-(4-methyl-2-oxo-2H-chromen-6-yl)acrylamide], the “inhibitor of Renilla luciferase” value at Renilla luciferase is “suitable inhibitors of Renilla luciferase”. Further, on Renilla luciferase (inhibitor 23 μM), the “Selectivity Value” stood at 1.05 and the remaining activity at 23 µM was 96%. Besides, at Renilla luciferase (inhibitor 153 μM), the “Selectivity Value” came to 1.04 and the remaining activity at 153 µM turned out to be 98%. At Renilla luciferase (inhibitor 1000 μM), the “Selectivity Value” was found to be 1.04 and the remaining activity at 1000 µM was 98.8%. Besides, on firefly luciferase, the remaining activity at 23 µM worked out at 101%, the remaining activity at 153 µM was 102% and the remaining activity at 1000 µM was determined as 103%.
With `COc1ccc(CNC(=O)/C(C#N)=C/CCCCCCCBr)cc1` [Compound 3059, (E)-10-bromo-2-cyano-N-(4-methoxybenzyl)dec-2-enamide], the “inhibitor of Renilla luciferase” value against Renilla luciferase is “suitable inhibitors of Renilla luciferase”. At Renilla luciferase (inhibitor 23 μM), the “Selectivity Value” was determined as 1.02 and the remaining activity at 23 µM turned out to be 99%. On Renilla luciferase (inhibitor 153 μM), the “Selectivity Value” amounted to 1.05 and the remaining activity at 153 µM came out at 96%. Further, on Renilla luciferase (inhibitor 1000 μM), the “Selectivity Value” amounted to 1.07 and the remaining activity at 1000 µM was determined as 94.6%. Besides, on firefly luciferase, the remaining activity at 23 µM stood at 101%, the remaining activity at 153 µM amounted to 101% and the remaining activity at 1000 µM is 101%.
As for `COc1ccc(CNC(=O)/C=C/c2ccc3c(ccc[n+]3C)c2)cc1.[I-]` [Compound 3061, (E)-6-(3-(4-methoxybenzylamino)-3-oxoprop-1-enyl)-1-methylquinolinium iodide], the “inhibitor of Renilla luciferase” value on Renilla luciferase is on record as “inhibitors of Renilla luciferase”. At Renilla luciferase (inhibitor 10 μM), the “Selectivity Value” turned out to be 1.1 and the remaining activity at 10 µM worked out at 96%. At Renilla luciferase (inhibitor 100 μM), the “Selectivity Value” is 1.8 and the remaining activity at 100 µM was found to be 85%. Also, at Renilla luciferase (inhibitor 1000 μM), the “Selectivity Value” was 2.3 and the remaining activity at 1000 µM stood at 36%. Moreover, on firefly luciferase, the remaining activity at 10 µM came out at 103%, the remaining activity at 100 µM came out at 100% and the remaining activity at 1000 µM turned out to be 82%.
With `COc1ccc(CCNC(=O)/C=C/c2ccc3[nH]cc(CCN(C)C)c3c2)cc1` [Compound 3062, (E)-3-(3-(2-(dimethylamino)ethyl)-1H-indol-5-yl)-N-(4-methoxyphenethyl)acrylamide], the “inhibitor of Renilla luciferase” value against Renilla luciferase is reported as “excellent inhibitors of Renilla luciferase”. Further, at Renilla luciferase (inhibitor 10 μM), the “Selectivity Value” was found to be 1.4 and the remaining activity at 10 µM is 74%. For the same compound, on Renilla luciferase (inhibitor 100 μM), the “Selectivity Value” is listed as 3.3 and the remaining activity at 100 µM is 30%. Moreover, on Renilla luciferase (inhibitor 1000 μM), the “Selectivity Value” was found to be 19.4 and the remaining activity at 1000 µM was 5.1%. Moreover, at firefly luciferase, the remaining activity at 10 µM was 100%, the remaining activity at 100 µM was found to be 98% and the remaining activity at 1000 µM worked out at 99%.
Take `CN(C)CCc1c[nH]c2ccc(/C=C/C(=O)NCc3ccc([N+](=O)[O-])cc3)cc12` [Compound 3063, (E)-3-(3-(2-(dimethylamino)ethyl)-1H-indol-5-yl)-N-(4-nitrobenzyl)acrylamide]: the “inhibitor of Renilla luciferase” value at Renilla luciferase is reported as “excellent inhibitors of Renilla luciferase”. For the same compound, on Renilla luciferase (inhibitor 10 μM), the “Selectivity Value” amounted to 1.6 and the remaining activity at 10 µM came to 63%. Besides, at Renilla luciferase (inhibitor 100 μM), the “Selectivity Value” amounted to 5.4 and the remaining activity at 100 µM came out at 19%. At Renilla luciferase (inhibitor 1000 μM), the “Selectivity Value” turned out to be 33 and the remaining activity at 1000 µM stood at 3.1%. Moreover, at firefly luciferase, the remaining activity at 10 µM is 102%, the remaining activity at 100 µM was determined as 102% and the remaining activity at 1000 µM is 102%.
`CN(C)CCc1c[nH]c2ccc(/C=C/C(=O)N3CCOCC3)cc12` [Compound 3064, (E)-3-(3-(2-(dimethylamino)ethyl)-1H-indol-5-yl)-1-morpholinoprop-2-en-1-one]: the “inhibitor of Renilla luciferase” value against Renilla luciferase is “excellent inhibitors of Renilla luciferase”. Also, the “Selectivity Value” on Renilla luciferase (inhibitor 10 μM) was found to be 1.3; at Renilla luciferase (inhibitor 100 μM), 2.9; on Renilla luciferase (inhibitor 1000 μM) it was 11.4. The values for the remaining activity at 10 µM at Renilla luciferase (inhibitor 10 μM) and on firefly luciferase were 81% and 102%, respectively. For the same compound, the remaining activity at 100 µM was found to be 35% on Renilla luciferase (inhibitor 100 μM) and 101% at firefly luciferase. Besides, the remaining activity at 1000 µM worked out at 9% at Renilla luciferase (inhibitor 1000 μM) and 103% on firefly luciferase.
Regarding `COc1ccc(CNC(=O)/C=C/c2ccc3[nH]cc(CN(C)C)c3c2)cc1` [Compound 3067, (E)-3-(3-((dimethylamino)methyl)-1H-indol-5-yl)-N-(4-methoxybenzyl)acrylamide], on Renilla luciferase, the “inhibitor of Renilla luciferase” value is reported as “excellent inhibitors of Renilla luciferase”. For the same compound, on Renilla luciferase (inhibitor 10 μM), the “Selectivity Value” was 1.3 and the remaining activity at 10 µM came to 79%. Further, at Renilla luciferase (inhibitor 100 μM), the “Selectivity Value” came out at 2.9 and the remaining activity at 100 µM turned out to be 34%. At Renilla luciferase (inhibitor 1000 μM), the “Selectivity Value” is 14.3 and the remaining activity at 1000 µM is 7%. Also, at firefly luciferase, the remaining activity at 10 µM was determined as 100%, the remaining activity at 100 µM was 99% and the remaining activity at 1000 µM came to 100%.
As for `COc1ccc(CNC(=O)/C=C/c2ccc3[nH]cc(CCN(C)C)c3c2)cc1` [Compound 3068, (E)-3-(3-(2-(dimethylamino)ethyl)-1H-indol-5-yl)-N-(4-methoxybenzyl)acrylamide], the “inhibitor of Renilla luciferase” value on Renilla luciferase is listed as “excellent inhibitors of Renilla luciferase”. Moreover, on Renilla luciferase (inhibitor 10 μM), the “Selectivity Value” stood at 2.5 and the remaining activity at 10 µM was found to be 40%. On Renilla luciferase (inhibitor 100 μM), the “Selectivity Value” is recorded as 10.2 and the remaining activity at 100 µM turned out to be 10%. At Renilla luciferase (inhibitor 1000 μM), the “Selectivity Value” is given as 48.6 and the remaining activity at 1000 µM is 2.1%. Also, at firefly luciferase, the remaining activity at 10 µM stood at 101%, the remaining activity at 100 µM was 102% and the remaining activity at 1000 µM came out at 102%.
